Test results: patent US9914735B2, “Heteroaryl Syk inhibitors” (Boehringer Ingelheim International GmbH, priority 2014, dated 2018)
Read-outs that look alike come from different tables or passages of the source.

Tests used:
FLT3 = FLT3 (Homo sapiens (Human), UniProt P36888); assay: FLT3 kinase test (Z'-LYTE); format: biochemical
Protocol: The activity of FLT3 is measured using the Z′-LYTETM assay technology from Invitrogen (#PV3191)
The reaction is started by addition of 2.5 μl of the 4×ATP solution.
Positive controls are reaction mixtures containing no test compound; negative controls (blanks) are reaction mixtures containing no kinase. As a further control, the phosphopeptide solution is added to wells without kinase (=100% phosphorylation control).
The reaction is performed for 1 h at room temperature before 5 μl of the development solution is added. After a further incubation for 1 h at room temperature 5 μl of the stop reagent is added.
The output text file is evaluated in an “MS-Excel—VB-Makro” and “GraphPadPrism” (Version 5) (GraphPad Software Inc.) is used to calculate the results. Data for the inhibition of FLT3 are reported in M. data for the inhibition of the protease are reported in % CTL.

[1] = target: Recombinant human Syk (amino acids 342-635), GST-Syk kinase fusion protein (Homo sapiens (Human), UniProt P43405); assay: Syk kinase test (Kinase Glo luminescence); format: biochemical
Protocol: (§1) The output file of the reader is a csv file that contains the well number and measured relative light units (RLU). For data evaluation and calculation, the measurement of the negative control was set as 100% ctrl and the measurement of the positive control was set as 0% ctrl. Based on this values the % value for the measurement of each substance concentration was calculated using an Assay Explorer software (Accelrys). Normally, the % ctrl values calculated are between 0% and 100% values but may also occur outside these limits in individual cases based on variability or compound characteristics. The IC50 values were calculated from the % ctrl values using Assay Explorer software. Calculation:[y=(a−d)/(1+(x/c)^b)+d] a=low value, d=high value; x=conc M; c=IC50 M; b=hill; y=% ctrl.

[2] = target: Recombinant human Aurora B (amino acids 1-344) (Homo sapiens (Human), UniProt Q96GD4); assay: Aurora B kinase test (ADP Glo luminescence); format: biochemical
Protocol: The activity of the Aurora B kinase protein was determined using the ADP Glo® Luminescence Kinase test (Promega; V9103X).
Serial Dilution is done in 1:10 steps in 100% DMSO.
Then 20 μl Kinase detection mix (Detection Buffer #V913B Promega; Kinase Detection Substrate #V914B Promega) were added and incubated for 40 minutes at room temperature.
as §1, with “measured RLU.” for “measured relative light units (RLU).”, “as 0%” for “as 100%”, “as 100%” for “as 0%”, “software. Calculation: [y=(a−d)/(1+(x/c)^b)+d],” for “software. Calculation:[y=(a−d)/(1+(x/c)^b)+d]”

[3] = Human liver microsomal stability test; format: in vitro ADME; settings: human liver microsomes; Qh = liver blood flow
Protocol: The metabolic degradation for a specific SYK-inhibitor is performed at 37° C. with pooled human liver microsomes (human liver microsomes are commercially available as “BD UltraPool™” by Corning Life Sciences, Fogostraat 12, 1060 LJ Amsterdam, The Netherlands). The final incubation volume of 100 μl per time point contains TRIS buffer pH 7.6 at RT (0.1 M), magnesium chloride (5 mM), microsomal protein (1 mg/ml) and the test compound at a final concentration of 1 μM.
Following a short preincubation period at 37° C., the reaction is initiated by addition of beta-nicotinamide adenine dinucleotide phosphate in its reduced form (NADPH, 1 mM) and terminated by transfering an aliquot into solvent after different time points. Additionally, the NADPH-independent degradation is monitored in incubations without NADPH, terminated at the last time point.
The quenched (terminated) incubations are then pelleted by centrifugation (10000 g, 5 min).
An aliquot of the supernatant is assayed by LC-MS/MS for the remaining amount of parent compound. The half-life (t1/2 INVITRO) is determined by the slope of the semilogarithmic plot of the concentration-time profile.
The intrinsic clearance (CL_[…]) is calculated by considering the amount of protein in the incubation: CL_[…][μl/min/mg protein]=(Ln 2/(t1/2 INVITRO[min]*protein content[mg/ml]))*1000
The protein content [mg/ml] was determined with the “Bicinchoninic Acid Kit” of Sigma Aldrich (commercially available).
The upscaled intrinsic Clearance (CL_UP_INT) is calculated by considering the liver weight [g liver/kg body weight] and the microsomal recovery [mg protein/g liver]: CL_UP_INT[ml/min/kg]=0.001*CL_[…]*liver weight*microsomal recovery • with microsomal recovery=45 mg protein/g liver • with liver weight=25.7 g liver/kg body weight
The percent hepatic blood flow (% Qh) is finally calculated by considering the human liver blood flow Q [ml/min/kg]: % Qh[%]=((Q*CL_UP_INT)/(Q+CL_UP_INT)/Q)*100 • with liver blood flow (Q)=20.7 ml/min/kg.

Human GSK3beta = Human GSK3beta (Homo sapiens (Human), UniProt P49841); assay: GSK 3beta kinase test (Z'-LYTE); format: biochemical; settings: read-out: IC50 in μM (GSK3beta-Inhibition)
Protocol: Human GSK3beta (expressed and prified from SF21 cells) is obtained from the University Dundee/Scotland (Dr. James Hastie—Dept. of Biochemistry) in 50 mM Tris (pH7.5); 150 mM NaCl; 0.1 mM EGTA, 270 mM Succrose, 0.1% β-mercaptoethanol, 1 mM benzamidine, 0.2 mM PMSF; sequence see below). The enzyme is diluted to 3.56 μM (168 μg/ml) in enzyme dilution buffer and 6 μl aliquots are stored at −80° C.
The activity of GSK3 kinase protein is measured using the Z′-LYTETM assay technology from Invitrogen (# PV3324).
The assay is performed in 384 black plates from Corning (#3676) in a final volume of 10 μl by adding 5 μl of kinase peptide mix and 2.5 μl of compound dilution. The reaction is started by addition of 2.5 μl of the 4×ATP solution.
Positive controls are reaction mixtures containing no test compound; negative controls (blanks) are reaction mixtures containing no ATP. As a further control, the phosphopeptide solution is added to wells without kinase and without ATP (=100% phosphorylation control).
The non inhibited kinase reaction will result in a phosphorylation corresponding to 20%-30% of the phosphorylation control.
The reaction is performed 1 h at room temperature. After 1h 5 μl of the development solution is added. After a further incubation for 1 h at room temperature 5 μl of the stop reagent is added. Finally the plates are read on a Flex Station II 384 (Molecular Devices).
The output text file is evaluated in an “MS-Excel—VB-Makro” and “GraphPadPrism” (Version 5) (GraphPad Software Inc.) is used to calculate the results. Data for the inhibition of GSK3beta are reported in M. data for the inhibition of the protease are reported in % CTL.

[4] = Table 1, read-out: FLT3-inhibition IC50-value
[5] = read-out: IC50 in μM (FLT3-Inhibition)
[6] = Table 1, read-out: SYK-inhibition IC50-value
[7] = read-out: IC50 in μM (SYK-Inhibition)
[8] = Table 1, read-out: AURB-inhibition IC50-value
[9] = read-out: IC50 in μM (AURB-Inhibition)

FLT3, sequence (P36888 27-993): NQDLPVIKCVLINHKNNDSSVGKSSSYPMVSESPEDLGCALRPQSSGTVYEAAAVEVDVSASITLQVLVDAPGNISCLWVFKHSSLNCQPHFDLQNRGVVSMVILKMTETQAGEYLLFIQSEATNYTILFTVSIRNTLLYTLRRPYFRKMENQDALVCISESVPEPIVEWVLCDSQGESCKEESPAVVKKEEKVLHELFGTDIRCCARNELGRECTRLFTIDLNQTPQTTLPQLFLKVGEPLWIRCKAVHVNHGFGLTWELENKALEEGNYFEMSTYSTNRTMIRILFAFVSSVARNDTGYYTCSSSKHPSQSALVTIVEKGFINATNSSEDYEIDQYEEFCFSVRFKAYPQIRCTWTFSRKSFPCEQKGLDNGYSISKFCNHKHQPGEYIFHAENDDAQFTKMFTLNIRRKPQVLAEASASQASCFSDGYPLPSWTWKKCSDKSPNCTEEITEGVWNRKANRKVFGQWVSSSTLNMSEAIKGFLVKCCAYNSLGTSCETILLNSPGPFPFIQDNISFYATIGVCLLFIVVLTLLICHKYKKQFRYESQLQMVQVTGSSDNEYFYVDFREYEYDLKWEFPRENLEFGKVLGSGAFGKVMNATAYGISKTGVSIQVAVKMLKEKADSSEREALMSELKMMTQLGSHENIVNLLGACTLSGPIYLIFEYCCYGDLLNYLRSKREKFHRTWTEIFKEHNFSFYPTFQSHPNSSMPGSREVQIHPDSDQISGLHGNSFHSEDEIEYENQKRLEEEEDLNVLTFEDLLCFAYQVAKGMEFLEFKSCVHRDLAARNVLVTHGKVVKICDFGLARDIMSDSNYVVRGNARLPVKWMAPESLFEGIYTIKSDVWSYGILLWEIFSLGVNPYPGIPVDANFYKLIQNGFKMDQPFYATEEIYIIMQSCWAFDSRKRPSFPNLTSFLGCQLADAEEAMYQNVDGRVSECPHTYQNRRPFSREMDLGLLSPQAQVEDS
Human GSK3beta, sequence (P49841 whole entry): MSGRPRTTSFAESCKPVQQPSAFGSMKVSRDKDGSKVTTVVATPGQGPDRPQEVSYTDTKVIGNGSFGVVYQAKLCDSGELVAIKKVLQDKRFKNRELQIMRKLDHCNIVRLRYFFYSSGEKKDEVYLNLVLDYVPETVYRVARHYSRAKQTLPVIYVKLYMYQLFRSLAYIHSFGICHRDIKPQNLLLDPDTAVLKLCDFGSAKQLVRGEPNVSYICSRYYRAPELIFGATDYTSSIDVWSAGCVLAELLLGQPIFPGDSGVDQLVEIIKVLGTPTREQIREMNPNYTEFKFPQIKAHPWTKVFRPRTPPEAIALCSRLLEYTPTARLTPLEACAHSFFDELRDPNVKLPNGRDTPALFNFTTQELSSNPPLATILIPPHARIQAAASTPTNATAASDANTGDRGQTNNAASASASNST
Recombinant human Aurora B (amino acids 1-344), sequence (Q96GD4 whole entry, the tested form may be a part): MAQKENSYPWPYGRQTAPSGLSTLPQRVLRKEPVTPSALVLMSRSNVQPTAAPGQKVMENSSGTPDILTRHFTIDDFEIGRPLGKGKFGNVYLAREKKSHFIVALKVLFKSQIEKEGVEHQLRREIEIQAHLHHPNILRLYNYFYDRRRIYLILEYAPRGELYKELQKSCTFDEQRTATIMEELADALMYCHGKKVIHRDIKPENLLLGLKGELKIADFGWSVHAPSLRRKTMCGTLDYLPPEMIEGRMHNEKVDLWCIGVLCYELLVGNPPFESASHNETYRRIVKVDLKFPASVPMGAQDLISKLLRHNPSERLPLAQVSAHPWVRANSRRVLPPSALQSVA

COc1cc(-c2cc3nn(C)cc3c(O[C@H](C)[C@H]3CNC(=O)C3)n2)cc(OC)c1OC [Example 52, (4R)-4-[(1R)-1-[2-methyl-6-(3,4,5-trimethoxyphenyl)-pyrazolo[4,3-c]pyridin-4-yl]oxyethyl]pyrrolidin-2-one]
IC50 (FLT3; [4]): > 50 µM
IC50 (FLT3; [5]): > 50 µM
IC50 [1, 6]: 0.0413 µM
IC50 [1, 7]: 0.0413 µM
IC50 [2, 8]: > 50 µM
IC50 [2, 9]: > 50 µM
microsomal stability Cl [% Qh] [3]: <23 % Qh
IC50 (Human GSK3beta): > 10 µM

COc1cc(-c2cc3nn(C)cc3c(O[C@H](C)[C@H]3CNC(=O)C3)n2)ccc1OC(C)C [Example 81, (4R)-4-[(1R)-1-[6-(4-isopropoxy-3-methoxy-phenyl)-2-methyl-pyrazolo-[4,3-c]pyridin-4-yl]oxyethyl]-pyrrolidin-2-one]
IC50 (FLT3; [4]): 5.24 µM
IC50 (FLT3; [5]): 5.24 µM
IC50 [1, 6]: 0.024 µM
IC50 [1, 7]: 0.024 µM
IC50 [2, 8]: 48.4 µM
IC50 [2, 9]: 48.4 µM
microsomal stability Cl [% Qh] [3]: <23 % Qh
IC50 (Human GSK3beta): > 10 µM

COc1cc(-c2cc3ncccc3c(O[C@H](C)[C@H]3CNC(=O)C3)n2)cc(OC)c1Cl [8 of WO 2011/092128]
IC50 (FLT3; [5]): > 50 µM
IC50 [2, 9]: > 50 µM
microsomal stability Cl [% Qh] [3]: 77 % Qh
IC50 (Human GSK3beta): > 10 µM

C[C@@H](Oc1cc(-c2ccc3cnn(C)c3c2)cc2ncccc12)[C@H]1CNC(=O)C1 [42 of WO 2013/014060]
IC50 (FLT3; [5]): 0.618 µM
IC50 [2, 9]: 0.63 µM
microsomal stability Cl [% Qh] [3]: <23 % Qh
IC50 (Human GSK3beta): > 10 µM

Cc1nc2cc(-c3cc(O[C@H](C)[C@H]4CNC(=O)C4)c4cccnc4c3)ccc2n1C [105 of WO 2013/014060]
IC50 (FLT3; [5]): 0.309 µM
IC50 [1, 7]: 0.001 µM
IC50 [2, 9]: 0.479 µM
microsomal stability Cl [% Qh] [3]: 64 % Qh
IC50 (Human GSK3beta): > 10 µM

COc1cc(-c2cc3nn(C)cc3c(O[C@H](C)[C@H]3CNC(=O)C3)n2)ccc1O [Example 8, (4R)-4-[(1R)-1-[6-(4-Hydroxy-3-methoxy-phenyl)-2-methyl-pyrazolo[4,3-c]pyridin-4-yl]oxyethyl]pyrrolidin-2-one]
IC50 (FLT3; [4]): 13.5 µM
IC50 (FLT3; [5]): 13.5 µM
IC50 [2, 8]: > 50 µM
IC50 [2, 9]: > 50 µM
microsomal stability Cl [% Qh] [3]: <23 % Qh
IC50 (Human GSK3beta): > 10 µM

COc1cc(-c2cc(O[C@H](C)[C@H]3CNC(=O)C3)c3cccnc3c2)cc(OC)c1OC [2 of WO 2013/014060]
IC50 (FLT3; [5]): 7.39 µM
IC50 [2, 9]: 16.9 µM
microsomal stability Cl [% Qh] [3]: 81 % Qh
IC50 (Human GSK3beta): > 10 µM

C[C@@H](Oc1cc(-c2ccc(N3CCOCC3)cc2)cc2nn(C)cc12)[C@H]1CNC(=O)C1 [Example 22, (4R)-4-[(1R)-1-[2-Methyl-6-(4-morpholinophenyl)indazol-4-yl]oxyethyl]-pyrrolidin-2-one]
microsomal stability Cl [% Qh] [3]: 25 % Qh
IC50 (Human GSK3beta): > 10 µM

COc1cc(-c2cc(O[C@H](C)[C@H]3CNC(=O)C3)c3cccnc3c2)ccc1O [11 of WO 2013/014060]
IC50 [2, 9]: 0.752 µM
microsomal stability Cl [% Qh] [3]: 24 % Qh
IC50 (Human GSK3beta): > 10 µM

C[C@@H](Oc1cc(-c2ccc3ncccc3c2)cc2ncccc12)[C@H]1CNC(=O)C1 [29 of WO 2013/014060]
IC50 (FLT3; [5]): 0.315 µM
IC50 [2, 9]: 0.293 µM
microsomal stability Cl [% Qh] [3]: 44 % Qh
IC50 (Human GSK3beta): > 10 µM

C[C@@H](Oc1cc(-c2ccc(C(=O)N3CCN(C)CC3)cc2)cc2ncccc12)[C@H]1CNC(=O)C1 [76 of WO 2013/014060]
IC50 (FLT3; [5]): 0.169 µM
IC50 [2, 9]: 0.075 µM
microsomal stability Cl [% Qh] [3]: <23 % Qh
IC50 (Human GSK3beta): > 10 µM

C[C@@H](Oc1cc(-c2ccc3ncn(C)c3c2)cc2ncccc12)[C@H]1CNC(=O)C1 [81 of WO 2013/014060]
IC50 (FLT3; [5]): 0.514 µM
IC50 [2, 9]: 0.949 µM
microsomal stability Cl [% Qh] [3]: <23 % Qh
IC50 (Human GSK3beta): > 10 µM

C[C@@H](Oc1cc(-c2ccc3[nH]cnc3c2)cc2ncccc12)[C@H]1CNC(=O)C1 [41 of WO 2013/014060]
IC50 (FLT3; [5]): 0.505 µM
IC50 [2, 9]: 0.308 µM
microsomal stability Cl [% Qh] [3]: 37 % Qh
IC50 (Human GSK3beta): > 10 µM

COc1cc(-c2cc(O[C@H](C)[C@H]3CNC(=O)C3)c3cccnc3c2)ccc1OC(C)C [10 of WO 2013/014060]
IC50 (FLT3; [5]): 0.312 µM
IC50 [2, 9]: 0.271 µM
microsomal stability Cl [% Qh] [3]: 57 % Qh
IC50 (Human GSK3beta): > 10 µM

COc1cc(-c2cc3ncccc3c(O[C@H](C)[C@H]3CNC(=O)C3)n2)cc(Cl)c1OC [7 of WO 2011/092128]
IC50 (FLT3; [5]): 0.452 µM
IC50 [2, 9]: 2.33 µM
microsomal stability Cl [% Qh] [3]: 79 % Qh
IC50 (Human GSK3beta): > 10 µM

C[C@@H](Oc1nc(-c2ccc(OC(F)(F)F)c(F)c2)cc2ncccc12)[C@H]1CNC(=O)C1 [1 of WO 2011/092128]
IC50 (FLT3; [5]): 1.53 µM
IC50 [2, 9]: 5.09 µM
IC50 (Human GSK3beta): > 10 µM

Cc1cn2cc(-c3cc(O[C@H](C)[C@H]4CNC(=O)C4)c4cccnc4c3)ccc2n1 [61 of WO 2013/014060]
IC50 (FLT3; [5]): 0.411 µM
IC50 [2, 9]: 0.25 µM
microsomal stability Cl [% Qh] [3]: <23 % Qh
IC50 (Human GSK3beta): > 10 µM

C[C@@H](Oc1cc(-c2ccc3c(c2)CNCC3)cc2ncccc12)[C@H]1CNC(=O)C1 [101 of WO 2013/014060]
IC50 (FLT3; [5]): 0.14 µM
IC50 [2, 9]: 1.05 µM
microsomal stability Cl [% Qh] [3]: <23 % Qh
IC50 (Human GSK3beta): > 10 µM

COc1ccc(-c2cc(O[C@H](C)[C@H]3CNC(=O)C3)c3cccnc3c2)cc1OC [8 of WO 2013/014060]
IC50 (FLT3; [5]): 0.369 µM
IC50 [2, 9]: 0.643 µM
microsomal stability Cl [% Qh] [3]: 58 % Qh
IC50 (Human GSK3beta): > 10 µM
